Experimental data as given in ChEMBL document CHEMBL1667742, “Angiotensin II receptor type 1 (AT1) selective nonpeptidic antagonists--a perspective” (Bioorg Med Chem, 2010).
Substitutions are numbered along the chain they refer to.

Legend:
[1] = system: Rattus norvegicus; assay: Antihypertensive activity in iv dosed renal hypertensive rat model assessed as reduction of blood pressure; type: functional
[2] = system: Rattus norvegicus; assay: Antihypertensive activity in po dosed renal hypertensive rat model assessed as reduction of blood pressure; type: functional
[3] = molecular target: T1, Type-2 angiotensin II receptor (Homo sapiens) (UniProt P50052); assay: (§1) Binding affinity to angiotensin AT2 receptor; conditions: concentration not given here
T1 sequence (whole entry): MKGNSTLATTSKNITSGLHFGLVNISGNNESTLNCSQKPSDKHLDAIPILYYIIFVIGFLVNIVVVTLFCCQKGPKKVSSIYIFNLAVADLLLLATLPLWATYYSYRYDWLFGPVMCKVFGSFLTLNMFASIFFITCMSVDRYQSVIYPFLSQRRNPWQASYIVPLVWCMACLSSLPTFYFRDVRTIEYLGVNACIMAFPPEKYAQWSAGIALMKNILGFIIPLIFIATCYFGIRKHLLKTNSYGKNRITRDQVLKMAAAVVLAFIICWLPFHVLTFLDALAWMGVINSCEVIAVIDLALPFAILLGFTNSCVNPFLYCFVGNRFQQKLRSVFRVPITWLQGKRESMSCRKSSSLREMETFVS

[4] = molecular target: T2, Type-2 angiotensin II receptor (Homo sapiens, UniProt P50052); assay: as §1
T2 sequence (P50052 whole entry): T1 sequence (whole entry)

[5] = Oral bioavailability in cynomolgus monkey; type: ADME, organism-based, Macaca fascicularis; conditions: in vivo
[6] = Binding affinity to angiotensin AT1 receptor in rat liver membranes; type: cell membranes, Membrane
[7] = Oral bioavailability in dog; type: ADME, organism-based, Canis lupus familiaris; conditions: in vivo
[8] = Oral bioavailability in rat; type: ADME, organism-based; conditions: in vivo
[9] = system: Rattus norvegicus; assay: Inhibition of angiotensin 2-induced response in intraduodenally dosed pithed normotensive rat; type: functional; conditions: Rattus norvegicus, intraduodenal
[10] = system: Rattus norvegicus; assay: Inhibition of angiotensin 2-induced response in iv dosed pithed normotensive rat; type: functional
[11] = molecular target: T3, Type-1 angiotensin II receptor (Bos taurus, UniProt P25104); assay: Displacement of radiolabeled angiotensin 2 from angiotensin AT1 receptor in bovine adrenal cortex membranes; type: cell membranes, Membrane
T3 sequence (P25104 whole entry): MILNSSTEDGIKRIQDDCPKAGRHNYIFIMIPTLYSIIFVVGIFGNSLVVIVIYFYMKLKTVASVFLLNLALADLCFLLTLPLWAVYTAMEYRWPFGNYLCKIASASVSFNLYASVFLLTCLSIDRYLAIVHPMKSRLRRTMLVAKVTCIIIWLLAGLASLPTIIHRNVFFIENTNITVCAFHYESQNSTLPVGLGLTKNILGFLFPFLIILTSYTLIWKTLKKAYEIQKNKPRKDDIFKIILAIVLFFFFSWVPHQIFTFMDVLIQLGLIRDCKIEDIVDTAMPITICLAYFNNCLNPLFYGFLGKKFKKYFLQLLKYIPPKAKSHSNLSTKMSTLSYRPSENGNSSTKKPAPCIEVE

[12] = molecular target: T4, Type-1 angiotensin II receptor (Cavia porcellus) (UniProt Q9WV26); assay: Antagonist activity at angiotensin AT1 receptor in guinea pig aorta assessed as reduction of angiotensin 2-induced contractile response; type: functional, tissue-based
T4 sequence (whole entry): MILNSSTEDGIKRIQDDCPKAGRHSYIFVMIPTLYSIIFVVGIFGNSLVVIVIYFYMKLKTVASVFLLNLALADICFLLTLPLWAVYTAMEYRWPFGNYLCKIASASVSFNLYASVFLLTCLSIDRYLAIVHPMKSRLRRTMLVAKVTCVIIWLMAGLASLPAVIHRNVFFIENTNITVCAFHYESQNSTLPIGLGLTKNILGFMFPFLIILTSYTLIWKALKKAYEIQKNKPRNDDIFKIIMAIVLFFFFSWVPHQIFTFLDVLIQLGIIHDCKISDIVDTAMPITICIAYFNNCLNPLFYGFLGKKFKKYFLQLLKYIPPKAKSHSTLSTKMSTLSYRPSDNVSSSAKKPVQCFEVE

[13] = molecular target: T5, Type-1 angiotensin II receptor (Cavia porcellus, UniProt Q9WV26); assay: Binding affinity to angiotensin AT1 receptor in guinea pig adrenal cortex membranes; type: cell membranes, Membrane
T5 sequence (Q9WV26 whole entry): T4 sequence (whole entry)

[14] = system: Rattus norvegicus; assay: Ratio of compound ED50 to losartan ED50 for po dosed renal hypertensive rat model; type: functional
[15] = species: Rattus norvegicus; assay: Antihypertensive activity in spontaneous hypertensive rat model assessed as reduction of blood pressure; type: functional
[16] = molecular target: T6, Type-1 angiotensin II receptor (Homo sapiens) (UniProt P30556); assay: Ratio of compound Ki to losartan Ki for angiotensin AT1 receptor
T6 sequence (whole entry): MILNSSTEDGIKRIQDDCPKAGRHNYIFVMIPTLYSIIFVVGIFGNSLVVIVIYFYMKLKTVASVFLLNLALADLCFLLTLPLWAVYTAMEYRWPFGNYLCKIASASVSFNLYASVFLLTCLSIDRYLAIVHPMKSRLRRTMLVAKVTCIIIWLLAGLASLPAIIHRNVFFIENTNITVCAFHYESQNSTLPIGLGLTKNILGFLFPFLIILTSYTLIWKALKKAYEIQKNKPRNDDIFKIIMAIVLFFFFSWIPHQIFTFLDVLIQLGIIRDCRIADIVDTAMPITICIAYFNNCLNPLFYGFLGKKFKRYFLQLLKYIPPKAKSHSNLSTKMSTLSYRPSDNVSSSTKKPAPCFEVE

[17] = molecular target: T6, Type-1 angiotensin II receptor (Homo sapiens); assay: Antagonist activity at angiotensin AT1 receptor; type: functional
[18] = molecular target: T7, Type-1 angiotensin II receptor (Homo sapiens, UniProt P30556); assay: Binding affinity to angiotensin AT1 receptor
T7 sequence (P30556 whole entry): T6 sequence (whole entry)

[19] = system: Rhesus monkey; assay: Antihypertensive activity in rhesus monkey assessed as inhibition of angiotensin 2-induced pressor response at 10 mg/kg, po after 4 to 24 hrs; type: functional; conditions: Macaca mulatta
[20] = molecular target: T7, Type-1 angiotensin II receptor; assay: Displacement of [3H]-angiotensin 2 from angiotensin AT1 receptor in human PLC-PRF5 cells; type: cell-based
[21] = molecular target: T7, Type-1 angiotensin II receptor; assay: Antagonist activity at angiotensin AT1 receptor in human PLC-PRF5 cells; type: functional, cell-based
[22] = Displacement of [125I]-angiotensin 2 from angiotensin AT1 receptor in rat liver membranes; type: cell membranes, Membrane
[23] = system: Rattus norvegicus; assay: Antihypertensive activity in iv dosed anesthetized ganglionic blocked rat model assessed as reduction of angiotensin 2-induced response; type: functional, organism-based
[24] = Displacement of [3H]-angiotensin 2 from angiotensin AT1 receptor in rat liver membranes; type: cell membranes, Membrane
[25] = molecular target: T8, Type-1 angiotensin II receptor (Oryctolagus cuniculus) (UniProt P34976); assay: Antagonist activity at angiotensin AT1 receptor in rabbit aorta; type: functional, tissue-based
T8 sequence (whole entry): T6 sequence (whole entry) with I2M, V49A, I254V, I270V, R272H, R311K, T349S, A353V

[26] = system: Homo sapiens; assay: Metabolic stability in iv and po dosed human assessed as conversion of EXP3174; type: ADME, organism-based; conditions: in vivo
[27] = molecular target: T9, Type-1 angiotensin II receptor (Oryctolagus cuniculus, UniProt P34976); assay: Antagonist activity at angiotensin AT1 receptor in rabbit thoracic aortic rings; type: functional; conditions: read-out: pA2 (converted)
T9 sequence (P34976 whole entry): T6 sequence (whole entry) with I2M, V49A, I254V, I270V, R272H, R311K, T349S, A353V

[28] = system: Rattus norvegicus; assay: Antihypertensive activity in po dosed conscious rat; type: functional; conditions: read-out: ED50
[29] = system: Rattus norvegicus; assay: Antihypertensive activity in iv dosed conscious rat; type: functional
[30] = molecular target: T6, Type-1 angiotensin II receptor (Homo sapiens); assay: Ratio of compound IC50 to losartan IC50 for angiotensin AT1 receptor

CCCc1nc(CN2CCN(c3ccccn3)CC2)c(C(=O)O)n1Cc1ccc(-c2ccccc2-c2nn[nH]n2)cc1 showed an ED50 [1] of 0.18 mg/kg and an ED50 [2] of 1.65 mg/kg.

In the case of CCc1nc2c(C)cc(C)nc2n1Cc1ccc(-c2ccsc2-c2nn[nH]n2)cc1, the inhibition [3] is reported as 90% and the IC50 [4] is reported as 2.3 nM.

For CCCN(Cc1ccc(-c2ccccc2-c2nn[nH]n2)cc1)c1ncccc1C(=O)O, the bioavailability [5] was > 50%, the Ki [6] was 0.76 nM and the bioavailability [7] was > 50%. For the same compound, the bioavailability [8] was > 50%.

For CCc1nc2c(C)cc(C)nc2n1Cc1ccc(-c2ccccc2S(=O)(=O)NC(=O)NCC2CC2)cc1, the ED50 [9] was 0.012 mg/kg, the IC50 [6] was 1000 nM and the ED50 [10] was 0.014 µmol/kg.

In the case of CCCc1nc(C(C)(C)O)c(C(=O)O)n1Cc1ccc(-c2ccccc2-c2nnn[nH]2)cc1 [OLMESARTAN], the IC50 [11] is reported as 7.7 nM and the pD2 [12] is reported as 9.9.

Compound Cc1cc(Sc2ccc(-c3ccccc3-c3nn[nH]n3)cc2)c2ccccc2n1 has an IC50 [13] of 370 nM.

For CCCCC1=NC(Cl)=C(C(=O)O)C(C)N1Cc1ccc(-c2ccccc2-c2nn[nH]n2)cc1 (stereo not drawn), the “Ratio ED50” value [14] was 20, the ED50 [15] was 0.08 µmol/kg and the Ratio Ki [16] was 10. It also gave a Kb [17] of 0.45 nM.

In the case of CCCCc1nn(-c2ccccc2C(F)(F)F)c(=O)n1Cc1ccc(-c2ccccc2S(=O)(=O)NC(=O)c2ccccc2)cc1 [L-159913], the Ki [18] is reported as 1.7 nM, the inhibition in vivo at 10 mg/kg [19] is reported as 76% and the bioavailability [8] is reported as 44%.

Work on CCCCN1CC2(CN1Cc1ccc(-c3ccccc3S(=O)(=O)NC(=O)c3ccccc3)cc1)C(=O)CCC2=O yielded a Ki [20] of 10 nM and an IC50 [21] of 12 nM.

Work on CCCc1nc(-n2cccc2C(=O)C(F)(F)F)c(C(=O)O)n1Cc1ccc(-c2ccccc2-c2nn[nH]n2)cc1 yielded an IC50 [22] of 0.8 nM and an IC50 [23] of 6.2 mg/kg.

CCc1nc(C2CC2)c(C(N)=O)n1Cc1ccc2oc(-c3ccccc3NS(=O)(=O)C(F)(F)F)c(Br)c2c1 gave a pKi [24] of 9.3 and a pKb [25] of 9.

CCCCc1nc(Cl)c(CO)n1Cc1ccc(-c2ccccc2-c2nn[nH]n2)cc1 [LOSARTAN] gave a Stability [26] of 14%.

In the case of CCCCc1nc2cc(OC)cc(C(=O)O)c2n1Cc1ccc(N(CC)C(C(=O)O)c2ccccc2)cc1 (stereo not drawn), the Kb [27] is reported as 5.01 nM.

CCCCc1nc2ccc(NC(=O)N(C)C(C)C)cc2c(=O)n1Cc1ccc(-c2ccccc2-c2nn[nH]n2)cc1 gave an ED50 [28] of 0.68 mg/kg and an ED50 [29] of 0.25 mg/kg.

In the case of CCCCC1=NC2(CCCC2)C(=O)N1Cc1ccc(-c2ccccc2-c2nnn[nH]2)cc1 [IRBESARTAN], the Ratio IC50 [30] is reported as 10 and the IC50 [6] is reported as 1.3 nM.
